Data on two molecules can be found in patent publication US7615361B2, “Toxicity screening methods” (Ceetox, Inc., priority 2006, dated 2009).

The structures appear in SMILES notation.

One data set has as its system rat cardiomyocytes. The data set is described as follows: Intracellular total glutathione (GSH). Format: cell-based. The note with it: rat cardiomyocytes, after 3 hr. An outline of the steps: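 Intracellular total glutathione serves as an oxidative-stress marker in neonatal rat cardiomyocytes exposed to compound in vitro. Cells were harvested for biochemical analysis, and values are means of each exposure group (n=3-7).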

The next data set concerns iNOS. Put plainly: bDNA analysis of mRNA in rat cardiomyocytes. Format: cell-based. On the procedure: Nitric oxide was also evaluated since it has been implicated in many pathways related to oxidative stress, apoptosis, and cardiac hypertrophy. More specifically, adriamycin induced mitochondrial toxicity is reduced in the presence of increased iNOS. Thus, a compensatory response to mitochondrial toxicity may be an increase in iNOS (Chaiswing et al., 2005). In this example, rat cardiomyocytes exposed to adriamycin induced iNOS expression more than 15-fold (FIG. 27C).
bDNA Sample Collection and Storage: After 48 hr compound exposure in 96-well plates, 50 μL of stock lysis mixture was added to each 100 μL well. Plates were mixed using a DPC 5 Micromix plate shaker at 37° C. for 15-30 minutes to ensure complete lysis of cells. Cell lysis was confirmed using a Nikon inverted microscope. Plates were stored at −80° C. until further analysis.
bDNA Analysis (Day 1): All solutions were prepared fresh on the day of analysis. Quantigene® bDNA kit components were brought to room temperature prior to use. […]
Substrate working solution was prepared by adding 30 μL of 10% Lithium Lauryl Sulfate to 10 mL Substrate solution per plate. […] Upon completion of last incubation, luminescence was measured using a Packard Fusion or equivalent plate reader with plate heater set to 46° C. Data were collected as relative light units (RLU) and expressed as fold change relative to controls after background subtract.

In data set [1] the test system is H4IIE tumor cells, NRK cells, rat primary hepatocytes. The data set is described as follows: Anti-tumor screen in three rat cell types. Format: cell-based.
Excerpt: In the Anti-tumor screen of the present invention, at least three different cell types are utilized: (1) tumor derived cells, (2) proliferating cells from normal tissue, and (3) non-proliferating cells from normal tissue. The evaluation of anti-tumor agents in multiple cell types provides information on mechanism-based toxicity versus efficacy.
The anti-tumor agent can be evaluated in a toxicity screen of key biochemical functions (as described in detail herein above), with emphasis placed on cell proliferation assays as well as biochemical function and cell viability. Comparisons can then be made to quantitative markers in the concentration response curves constructed with the toxicity data.
It is hypothesized to act through mitochondrial toxicity as well as apoptosis.
The next data set relates to NRK cells. The data set is described as follows: Caspase 3 activity (apoptosis). Format: cell-based, rat. The procedure: (§1) Caspase 3 Procedure: Caspase 3 activity was determined using a caspase substrate (DEVD, Asp-Glu-Val-Asp) labeled with a fluorescent molecule, 7-Amino4-methylcoumarin (AMC). Caspase 3 cleaves the tetrapeptide between D and AMC, thus releasing the fluorogenic […] AMC. Following the test article exposure to cells in 96-well plates, medium was aspirated from plates and PBS added to each well. Plates were stored at −80° C. to lyse cells and store samples until further analysis. On the day of analysis, plates were removed from freezer and thawed. Caspase buffer with fluorescent substrate was added to each well and incubated at room temperature for 1 hr. AMC release was measured in a spectrofluorometer at an excitation wavelength of 360 nm and an emission wavelength of 460 nm. Values are expressed as relative fluorescent units (RFU).
(§2) Caspase Activity: After sample plates were completely thawed, the caspase substrate buffer mix was added to each plate. Plates were incubated at room temperature for 1hr, shielded from light. Plates were read using a in a spectrofluorometer at an excitation wavelength of 360 nm and an emission wavelength of 460 nm. Values were expressed as relative fluorescent units (RFU).
The key to the maximal response data can be found below Table 2.
The third experiment was done to evaluate the specificity and selectivity of the test compound in another non-tumor cell that was derived from normal rat kidney tissue.

The subject of another data set is human hepatocytes. Put plainly: Caspase 3 activity (apoptosis). In kind it is cell-based. To be noted: 24 HR. The procedure: as §1, §2
The apoptosis data is expressed in Table 2 as a ratio of the magnitude of response versus the exposure concentration that produced the response. […]

A short description of data set [2]: MemTox membrane leakage (AK / α-GST). To be noted: human, HUVEC, read-out: MemTox TC50. Format: cell-based. On the procedure: Membrane Leakage (α-Glutathione S-transferase and/or Adenylate Kinase): The presence of Adenylate Kinase (AK) or α-Glutathione S-transferase (α-GST), both enzyme leakage markers, was measured in the culture medium using an activity assay for Adenylate Kinase and/or an ELISA assay for α-GST. At the end of the exposure period, the medium covering the cells in each well was removed and placed into new 96-well plates with appropriate labeling. […] Luminescence (AK) values were measured with a Packard Fusion or equivalent plate reader, and absorbance (α-GST) values were measured with a Packard SpectraCount™ or equivalent reader at 450 nm and reference absorbance at 650 nm.
Membrane Leakage (α-Glutathione S-transferase and/or Adenylate Kinase): Leakage of Adenylate Kinase or α-GST from the cell into the culture medium was determined by collecting the culture medium at the end of the exposure period. Thus, the values measured represent total enzyme leakage lost over the exposure period. The control for 100% dead or maximum enzyme release was based on cells treated with 1 mM digitonin at the time of dosing. Percent dead cells relative to digitonin treated cells was determined and then subtracted from 100% to yield the percent live cells.
Dosing solutions were prepared in complete culture medium.

On to `COc1cccc2c1C(=O)c1c(O)c3c(c(O)c1C2=O)C[C@@](O)(C(=O)CO)C[C@@H]3O[C@H]1C[C@H](N)[C@H](O)[C@H](C)O1` [ADRIAMYCIN, Adriamycin], for which the “cellular GSH depleted” value in the data set on rat cardiomyocytes is listed as “More than 90%”. For the same molecule, the iNOS expression induction result in the data set with iNOS is “more than 15 fold”. Besides, the “sensitivity of cell types in the anti-tumor screen” value in data set [1] is on record as “toxic to all of the cells tested”.

Regarding `CC[C@@]1(O)C(=O)OCc2c1cc1n(c2=O)Cc2cc3ccccc3nc2-1` [CAMPTOTHECIN, Camptothecin], the “Caspase 3 Activity (Index/Dose): Dose” value with NRK cells (6 HR) worked out at 100 µM; in the data set on NRK cells (24 HR), 300 µM; with human hepatocytes (controls (μM section)), 100. For the same molecule, the “Caspase 3 Activity (Index/Dose): Index” value in the data set with NRK cells (6 HR) is reported as 3 (40-60 = 3); in the data set with NRK cells (24 HR), 10 (180-200 = 10); in the data set with human hepatocytes it was 3 (400-600 = 3). Further, in data set [2], the CC50 at 24 h came out at 13 µM.
